From PMC7352571, “New Anti-Cancer Strategy to Suppress Colorectal Cancer Growth Through Inhibition of ATG4B and Lysosome Function” (Cancers, 2020) come the findings set out here.

In experiment [1] the test system is proteolytic activity of lysosomes in HeLa cells. In words: DQ-BSA Red assay. The experiment is classed as cell-based. Conditions: 6 h, 163N 5 or 10 µM, Baf 0.5 µM, E64D 25 µM plus pepstatin A 50 µM. The protocol: Figure 5 163N causes lysosome dysfunction. […] . (C) HeLa cells were treated with or without 163N (10 µM) for 6 h, followed by immunostaining using cathepsin B and LAMP1 antibody. The colocalization of cathepsin B and LAMP1 was measured.
DQ-BSA Red assay: cells were incubated with 10 µg/mL DQ-BSA Red in EBSS medium at 37° for 1.5 h, and then new medium with or without the indicated compounds were added for another 4 or 6 h, and then fluorescence microscopy was used for detecting the intensity of red fluorescent.
Supplementary Materials: New Anti-Cancer Strategy
to Suppress Colorectal Cancer Growth Through
Inhibition of ATG4B and Lysosome Function
Figure S1. Compounds with a 6-methylpyrimidine-2,4-diamine structure could cause lysosome
inhibition. (A) The structure of the representative lysosome inhibitors. (B) GFP-LC3B HeLa cells were
treated with Baf (0.5 µM) or 5 µM of different lysosome inhibitors for 2 h, then LysoTracker Red (LTR,
25 ng/mL) was used and the relative LTR fluorescent intensity was measured. (C) HeLa cells were
firstly treated with 10 µg/mL DQ-BSA for 1.5 h, and then treated with Rap (1 µM), Baf (0.5 µM), E64D
(25 µM) plus pepstatin A (50 µM), or 5 µM of different lysosome inhibitors for 4 h.
Cancers 2020, 12, x; www.mdpi.com/journal/ cancers […]

The next experiment has as its system HeLa cells. In words: CCK-8 cell viability assay, HeLa. The experiment is classed as cell-based. Particulars: Homo sapiens, HeLa; CCK-8 assay, 48 h. The protocol: (§1) Cells were seeded and incubated overnight in 96-well plates at a density of 5 × 10^3 cells/well. […] A total of 10 µL CCK-8 were added to each well for additional 1 h and cell viability was measured by CCK-8 assay. Absorbance was measured at 450 nm. The IC50 values were calculated by GraphPad Prism 7 (GraphPad Software Inc., San Diego, CA, USA).
For orientation: Tetrazolium dyes change colour on reduction, which living cells bring about.

A further experiment concerns HCT116 cells. In words: CCK-8 cell viability assay, HCT116. Format: cell-based, Human. Particulars: Homo sapiens, HCT-116; CCK-8 assay, 48 h. The protocol:
as §1

A further experiment has as its system HL60 cells. The experiment is described as follows: CCK-8 cell viability assay, HL60. The experiment is classed as cell-based. Particulars: Homo sapiens, HL-60; CCK-8 assay. As for the experimental part:
as §1

Another experiment has as its target T1, ATG4B (Homo sapiens, UniProt Q9Y4P1).
T1 sequence (Q9Y4P1 1-393): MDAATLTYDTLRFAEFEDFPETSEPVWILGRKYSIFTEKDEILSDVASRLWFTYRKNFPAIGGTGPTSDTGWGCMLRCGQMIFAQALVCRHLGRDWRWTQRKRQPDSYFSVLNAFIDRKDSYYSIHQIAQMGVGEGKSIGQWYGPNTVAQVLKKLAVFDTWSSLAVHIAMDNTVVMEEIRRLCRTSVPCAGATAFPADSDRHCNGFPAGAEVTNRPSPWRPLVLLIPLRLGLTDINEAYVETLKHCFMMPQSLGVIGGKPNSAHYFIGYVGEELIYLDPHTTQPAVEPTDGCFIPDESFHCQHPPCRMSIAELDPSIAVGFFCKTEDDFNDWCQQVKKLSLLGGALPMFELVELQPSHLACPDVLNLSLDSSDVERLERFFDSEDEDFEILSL
In words: FRET-based assay for ATG4B activity.

In experiment [2] the test system is lysosome acidity in HeLa cells. The experiment is described as follows: LysoTracker Red (LTR) assay, HeLa. Particulars: 6 h, 163N 5 or 10 µM, Rap 1 µM, E64D 25 µM plus pepstatin A 50 µM. The experiment is classed as cell-based. As for the experimental part: Figure 5 163N causes lysosome dysfunction. […] (C) HeLa cells were treated with or without 163N (10 µM) for 6 h, followed by immunostaining using cathepsin B and LAMP1 antibody. The colocalization of cathepsin B and LAMP1 was measured.
LTR assay: cells were incubated with LTR (25 nM) in HBSS medium at 37° for 30 min, and then fluorescence microscopy was used for detecting fluorescence intensity.

Protocol for ATG4B: A FRET-based assay for detecting ATG4B activity was carried out as described [45].

Take `CO/C1=C\C(C)=C\[C@@H](C)[C@@H](O)[C@@H](C)C/C(C)=C/C=C/[C@H](OC)[C@@H]([C@@H](C)[C@@H](O)[C@H](C)[C@@]2(O)C[C@@H](O)[C@H](C)[C@@H](C(C)C)O2)OC1=O` [Baf, Bafilomycin A1, reference compound]: in experiment [1], the “dequenching of DQ-BSA (proteolytic activity of lysosome)” value is on record as “nearly no dequenching of DQ-BSA”.

For `COc1cccc(-c2cc3c([N+](=O)[O-])cc([N+](=O)[O-])cc3[nH]2)c1OC` [XOS00176], the half-inhibitory concentration (IC50) is over 100 µM in the experiment on HeLa cells, over 100 µM in the experiment with HCT116 cells, over 100 µM with HL60 cells and 23.8 µM against ATG4B.

For the compound `CCOC(=O)c1cnc2c(/N=N/c3ccc(OCC)cc3)c(N)nn2c1N` [XOS00149], the half-inhibitory concentration (IC50) with HeLa cells was over 100 µM; with HCT116 cells, over 100 µM; in the experiment on HL60 cells it was over 100 µM; against ATG4B, 44 µM.

`Nc1cc(O)nc(/C=C/c2ccco2)c1` [XGS00048]: the IC50 is over 100 µM in the experiment with HeLa cells, over 100 µM with HCT116 cells, over 100 µM with HL60 cells and 13.8 µM at ATG4B.

`COc1cccc(-c2cc3nc(-c4cccnc4)c(C#N)c(N)n3n2)c1` [XOS00154]: the IC50 in the experiment on HeLa cells was over 100 µM; in the experiment on HCT116 cells it was over 100 µM; in the experiment with HL60 cells it was over 100 µM; on ATG4B, 40.7 µM.

In the case of `CCN1C(=O)/C(=C\c2cn(CC(=O)O)c3ccccc23)C(=O)N(c2ccc(Cl)cc2)C1=S` [XGS00119], the IC50 with HeLa cells was over 100 µM; in the experiment on HCT116 cells, over 100 µM; in the experiment with HL60 cells, over 100 µM; at ATG4B it was 7.37 µM.

Take `COc1c2c(cc3oc(=O)c4c5cc(O)c(O)cc5oc4c13)OCC2` [XOS00207]: the half-maximal inhibitory concentration (IC50) worked out at 87.1 µM in the experiment on HeLa cells, 17.6 µM in the experiment with HCT116 cells, 60.7 µM in the experiment on HL60 cells and 2.31 µM against ATG4B.

For the compound `COc1ccccc1/C=C/c1cc(O)cc(=O)[nH]1` [XGS00025], the half-inhibitory concentration (IC50) in the experiment with HeLa cells was over 100 µM; in the experiment with HCT116 cells, over 100 µM; in the experiment with HL60 cells it was over 100 µM; at ATG4B, 29.2 µM.

Consider `CO[C@H]1C[C@@H]2CC[C@@H](C)[C@@](O)(O2)C(=O)C(=O)N2CCCC[C@H]2C(=O)O[C@H]([C@H](C)C[C@@H]2CC[C@@H](O)[C@H](OC)C2)CC(=O)[C@H](C)/C=C(\C)[C@@H](O)[C@@H](OC)C(=O)[C@H](C)C[C@H](C)/C=C/C=C/C=C/1C` [Rap, rapamycin, reference compound], for which, in experiment [2], the “LTR red fluorescence / acidic vesicles” value is “stable”.

On to `Nc1cc(O)nc(/C=C/c2ccc(Cl)cc2)c1` [XGS00046], for which the half-maximal inhibitory concentration (IC50) is over 100 µM in the experiment with HeLa cells, over 100 µM in the experiment on HCT116 cells, over 100 µM with HL60 cells and 39.1 µM at ATG4B.

Consider `O=C(Nc1ccc(-c2cc3ccccc3o2)cc1)c1ccco1` [XOS00201], for which the half-inhibitory concentration (IC50) was 25.6 µM in the experiment with HeLa cells, 19.6 µM in the experiment on HCT116 cells, over 100 µM in the experiment with HL60 cells and 8.98 µM against ATG4B.

With `CC(=O)Nc1ccc(/N=C/c2c(C)c(C#N)c3[nH]c4cc(C)ccc4n3c2=O)cc1` [XOS00125], the IC50 was over 100 µM in the experiment with HeLa cells, over 100 µM in the experiment on HCT116 cells, over 100 µM in the experiment on HL60 cells and 40.6 µM against ATG4B.

Take `CCOC(=O)c1c(-c2ccccc2)oc2ccc(O)cc12` [XOS00163]: the IC50 was 32 µM in the experiment on HeLa cells, 23 µM with HCT116 cells, 31.7 µM in the experiment with HL60 cells and 6.2 µM at ATG4B.

In the case of `COc1cccc(/C=C/c2cc(N)cc(O)n2)c1` [XGS00043], the 50% inhibitory concentration (IC50) was over 100 µM with HeLa cells, over 100 µM in the experiment with HCT116 cells, over 100 µM in the experiment on HL60 cells and 36.3 µM at ATG4B.

With `Cc1ccc(/C=C/c2cc(O)cc(=O)[nH]2)o1` [XGS00031], the IC50 in the experiment with HeLa cells is over 100 µM; in the experiment on HCT116 cells, over 100 µM; in the experiment on HL60 cells, over 100 µM; on ATG4B, 13 µM.

Take `N/C(=N\[N+](=O)[O-])N/N=C/c1ccc(-c2ccc(-n3cnnn3)cc2)o1` [XOS00117]: the IC50 was over 100 µM in the experiment with HeLa cells, over 100 µM in the experiment on HCT116 cells, over 100 µM in the experiment on HL60 cells and 6.65 µM at ATG4B.

What is called IC50 is the concentration needed to halve the response being measured. Higher therefore signals weaker potency.
